Reference: PubChem BioAssay (NCI)
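GI50 marks 50% less growth. At the TGI there is no net growth.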

Assays:
Assay in all cases: NCI-60 cell line screen, 384-well format
[1] = tested on: IGROV1 ovarian
[2] = tested on: PC-3 prostate
[3] = tested on: SN12C renal
[4] = tested on: NCI-H226 lung
[5] = tested on: MDA-MB-435 melanoma
[6] = tested on: M14 melanoma
[7] = tested on: COLO 205 colon
[8] = tested on: HCC-2998 colon
[9] = tested on: KM12 colon
[10] = tested on: UACC-257 melanoma
[11] = tested on: DU-145 prostate
[12] = tested on: HCT-15 colon
[13] = tested on: SF-268 CNS
[14] = tested on: OVCAR-8 ovarian
[15] = tested on: UO-31 renal
[16] = tested on: CAKI-1 renal
[17] = tested on: SK-MEL-5 melanoma
[18] = tested on: EKVX NSCLC
[19] = tested on: NCI/ADR-RES ovarian
[20] = tested on: HOP-92 NSCLC
[21] = tested on: 786-0 renal
[22] = tested on: U251 glioblastoma
[23] = tested on: MDA-MB-231 breast
[24] = tested on: SW-620 colon
[25] = tested on: OVCAR-5 ovarian
[26] = tested on: OVCAR-3 ovarian
[27] = tested on: LOX IMVI melanoma
[28] = tested on: MCF7 breast
[29] = tested on: SK-MEL-28 melanoma
[30] = tested on: UACC-62 melanoma
[31] = tested on: A498 renal
[32] = tested on: MOLT-4 leukemia
[33] = tested on: MALME-3M melanoma
[34] = tested on: HT29 colon
[35] = tested on: HS 578T breast
[36] = tested on: SK-OV-3 ovarian
[37] = tested on: HCT-116 colon
[38] = tested on: SNB-75 CNS
[39] = tested on: A549 NSCLC
[40] = tested on: SF-539 CNS
[41] = tested on: NCI-H460 NSCLC
[42] = tested on: NCI-H322M lung
[43] = tested on: BT-549 breast
[44] = tested on: NCI-H23 lung
[45] = tested on: NCI-H522 lung
[46] = tested on: MDA-MB-468 breast
[47] = tested on: SF-295 CNS
[48] = tested on: OVCAR-4 ovarian
[49] = tested on: TK-10 renal
[50] = tested on: SNB-19 CNS
[51] = tested on: ACHN renal
[52] = tested on: RXF 393 renal
[53] = tested on: SR leukemia
[54] = tested on: T-47D breast
[55] = tested on: HOP-62 NSCLC
[56] = tested on: RPMI-8226 leukemia
[57] = tested on: HL-60(TB) leukemia

CN(C)C/C=C/C(=O)Nc1cc2c(Nc3ccc(F)c(Cl)c3)ncnc2cc1O[C@H]1CCOC1
GI50 [1]: < 0.01 µM | TGI [1]: 1.09 µM | GI50 [2]: 1.57 µM | TGI [2]: 3.58 µM | GI50 [3]: 0.316 µM | TGI [3]: 6.53 µM | GI50 [4]: 0.907 µM | TGI [4]: 2.21 µM | GI50 [5]: 2.01 µM | TGI [5]: 9.46 µM | GI50 [6]: 1.31 µM | TGI [6]: 2.59 µM | GI50 [7]: 2.08 µM | TGI [7]: 10.3 µM | GI50 [8]: 1.34 µM | TGI [8]: 2.81 µM | GI50 [9]: 1.23 µM | TGI [9]: 3.07 µM | GI50 [10]: 1.33 µM | TGI [10]: 2.62 µM | GI50 [11]: 0.383 µM | TGI [11]: 3.61 µM | GI50 [12]: 0.627 µM | TGI [12]: 2 µM | GI50 [13]: 1.39 µM | TGI [13]: 3.91 µM | GI50 [14]: 1.2 µM | TGI [14]: 2.77 µM | GI50 [15]: 0.184 µM | TGI [15]: 10.7 µM | GI50 [16]: 0.138 µM | TGI [16]: 1.57 µM | GI50 [17]: 1.02 µM | TGI [17]: 2.19 µM | GI50 [18]: < 0.01 µM | TGI [18]: 2.16 µM | GI50 [19]: 1.4 µM | TGI [19]: 5.41 µM | GI50 [20]: 0.499 µM | TGI [20]: 2.51 µM | GI50 [21]: 0.763 µM | TGI [21]: 2.19 µM | GI50 [22]: 1.31 µM | TGI [22]: 4.05 µM | GI50 [23]: 0.386 µM | TGI [23]: 1.87 µM | GI50 [24]: 1.8 µM | TGI [24]: 5.1 µM | GI50 [25]: 1.05 µM | TGI [25]: 7.64 µM | GI50 [26]: 0.0798 µM | TGI [26]: 0.928 µM | GI50 [27]: 1.05 µM | TGI [27]: 2.24 µM | GI50 [28]: 1.22 µM | TGI [28]: 2.78 µM | GI50 [29]: 1.99 µM | TGI [29]: 5.18 µM | GI50 [30]: 1.37 µM | TGI [30]: 2.78 µM | GI50 [31]: 0.126 µM | TGI [31]: 1.54 µM | GI50 [32]: 0.232 µM | TGI [32]: 1.26 µM | GI50 [33]: 1.42 µM | TGI [33]: 2.73 µM | GI50 [34]: 2 µM | TGI [34]: 11.4 µM | GI50 [35]: 1.45 µM | TGI [35]: 3.14 µM | GI50 [36]: 0.112 µM | TGI [36]: 8.4 µM | GI50 [37]: 0.551 µM | TGI [37]: 1.95 µM | GI50 [38]: 0.429 µM | TGI [38]: 2.96 µM | GI50 [39]: 0.436 µM | TGI [39]: 2.33 µM | GI50 [40]: 1.41 µM | TGI [40]: 2.78 µM | GI50 [41]: 1.79 µM | TGI [41]: 3.8 µM | GI50 [42]: < 0.01 µM | TGI [42]: 0.0131 µM | GI50 [43]: 0.617 µM | TGI [43]: 1.92 µM | GI50 [44]: 1.32 µM | TGI [44]: 2.78 µM | GI50 [45]: < 0.01 µM | TGI [45]: 0.0344 µM | GI50 [46]: < 0.01 µM | GI50 [47]: 3.93 µM | TGI [47]: 14.6 µM | GI50 [48]: 2.05 µM | TGI [48]: 6.59 µM | GI50 [49]: < 0.01 µM | TGI [49]: 11.2 µM | GI50 [50]: 1.91 µM | TGI [50]: 10.6 µM | GI50 [51]: < 0.01 µM | TGI [51]: 1.42 µM | GI50 [52]: 0.226 µM | TGI [52]: 0.838 µM | GI50 [53]: 1.21 µM | TGI [53]: 2.45 µM | GI50 [54]: 0.0171 µM | TGI [54]: 2.54 µM | GI50 [55]: 1.91 µM | TGI [55]: 5.05 µM | GI50 [56]: 1.28 µM | TGI [56]: 2.55 µM | GI50 [57]: 0.34 µM | TGI [57]: 1.3 µM
